Measurements: patent US20220089541A1, “Compounds for the Treatment of Kinase-Dependent Disorders” (Exelixis, Inc., priority 2019, published 2022)

Key:
[1] = microsomes, pH 7.4
Procedure: (§1) Liver microsomes tissue fractions were used for in vitro assessment of metabolic stability of compounds by cytochrome P450 (CYP450) (for example, CYP3A4, CYP2C9) mediated phase I oxidation, and metabolism through other pathways. Human, mouse, rat, and dog liver microsomes tissue fractions were obtained from Corning Gentest and BioreclamationIVT.
(§2) The assay was carried out in 96-well microtiter plates. Compounds were incubated (N=l) at 37° C. in the presence of liver microsomes. Reaction mixtures (25 μL) contained a final concentration of 1 μM test compound, 0.5 mg/mL liver microsomes (LM) protein, and 1 mM NADPH in 100 mM potassium phosphate, pH 7.4 buffer with 3.3 mM MgCl2. The extent of metabolism was calculated as the disappearance of the test compound, compared to the 0-min control reaction incubations. Verapamil was included as a positive control to verily assay performance.
(§3) At each of the four time points, 150 μL of quench solution (100% acetonitrile with 0.1% formic acid) with internal standard (bucetin for positive ESI mode) was transferred to each well. Plates were sealed and centrifuged at 10° C. for 15 minutes at 4000 rpm. The supernatant was transferred to fresh plates for LC/MS/MS analysis.
(§4) All samples were analyzed on LC/MS/MS using an AB Sciex API 4000 instrument, coupled to a Shimadzu LC-20AD LC Pump system. Analytical samples were separated using a Waters Atlantis T3 dC18 reverse phase HPLC column (20 mm×2.1 mm) at a flow rate of 0.5 mL/min. The mobile phase consisted of 0.1% formic acid in water (solvent A) and 0.1% formic acid in 100% acetonitrile (solvent B).

[2] = microsomes, pH 7.4; remark: listed apart in the source
Procedure: as §1, §2, §3, §4

[3] = microsomes, pH 7.4; remark: listed apart in the source
Procedure: as §1, §2, §3, §4

[4] = Microsomal assay, rat liver microsome stability; settings: liver microsomes, pH 7.4
Procedure: as §1, §2, §3, §4

[5] = Microsomal assay, mouse liver microsome stability; settings: liver microsomes, pH 7.4
Procedure: as §1, §2, §3, §4

[6] = biological target: T1, Met (Homo sapiens, UniProt P08581); experiment: Met autophosphorylation ELISA in PC-3 cells; format: cell-based; settings: PC-3 prostate cancer cells, HGF-stimulated, phospho-Met ELISA, 1 h compound incubation; read-out: c-Met IC50
T1 construct: host or cells: PC-3 prostate cancer cells
T1 sequence (P08581 25-1390): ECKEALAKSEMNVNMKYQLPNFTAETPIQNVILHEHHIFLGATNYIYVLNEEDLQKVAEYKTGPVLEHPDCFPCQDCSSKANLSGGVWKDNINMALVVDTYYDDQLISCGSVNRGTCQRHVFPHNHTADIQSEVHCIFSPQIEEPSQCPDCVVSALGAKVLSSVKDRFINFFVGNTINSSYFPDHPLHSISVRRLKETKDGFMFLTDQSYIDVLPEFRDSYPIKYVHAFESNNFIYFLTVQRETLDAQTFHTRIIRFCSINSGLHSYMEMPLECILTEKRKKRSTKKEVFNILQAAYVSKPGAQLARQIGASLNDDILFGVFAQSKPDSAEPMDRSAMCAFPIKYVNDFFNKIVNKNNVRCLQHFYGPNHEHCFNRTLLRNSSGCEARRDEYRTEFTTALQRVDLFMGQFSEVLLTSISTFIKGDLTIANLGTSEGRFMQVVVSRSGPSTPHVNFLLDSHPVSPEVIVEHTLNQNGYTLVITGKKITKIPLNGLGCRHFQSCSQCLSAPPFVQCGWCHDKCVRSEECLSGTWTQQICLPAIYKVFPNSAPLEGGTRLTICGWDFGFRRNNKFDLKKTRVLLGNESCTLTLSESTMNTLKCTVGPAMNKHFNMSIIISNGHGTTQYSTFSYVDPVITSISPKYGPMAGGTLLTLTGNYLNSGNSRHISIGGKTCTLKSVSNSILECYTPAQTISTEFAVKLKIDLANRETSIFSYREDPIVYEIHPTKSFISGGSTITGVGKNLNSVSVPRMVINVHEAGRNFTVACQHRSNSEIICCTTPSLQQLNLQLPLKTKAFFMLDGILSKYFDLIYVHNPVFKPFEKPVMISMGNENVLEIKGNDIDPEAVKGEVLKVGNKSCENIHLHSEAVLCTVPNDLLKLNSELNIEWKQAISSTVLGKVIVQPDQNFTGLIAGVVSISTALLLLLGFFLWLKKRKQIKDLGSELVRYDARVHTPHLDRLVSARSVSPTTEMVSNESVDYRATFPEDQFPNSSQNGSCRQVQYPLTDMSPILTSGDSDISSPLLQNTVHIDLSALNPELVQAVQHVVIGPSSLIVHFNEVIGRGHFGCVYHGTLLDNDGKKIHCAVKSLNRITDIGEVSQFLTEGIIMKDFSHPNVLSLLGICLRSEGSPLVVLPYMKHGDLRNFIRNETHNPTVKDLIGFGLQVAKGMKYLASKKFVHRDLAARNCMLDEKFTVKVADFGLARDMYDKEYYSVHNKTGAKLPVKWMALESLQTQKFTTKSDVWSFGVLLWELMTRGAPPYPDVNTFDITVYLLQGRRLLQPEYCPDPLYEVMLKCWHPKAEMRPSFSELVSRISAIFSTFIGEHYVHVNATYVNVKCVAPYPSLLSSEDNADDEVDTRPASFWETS
Procedure: Example B: Met Autophosphorylation ELISA in PC-3 Cells
PC-3 prostate cancer cells (ATCC #CRL-1435) were seeded at 4×10^4 cells/well onto 24-well plates (Greiner #662165), in DMEM (Thermo Fisher #11995-040) containing 10% FBS (Thermo Fisher #26140-079), 1% MEM NEAA (Thermo Fisher #11140-050), 1% GlutaMax (Thermo Fisher #35050-061), and 1% Penicillin Streptomycin (Thermo Fisher #15140-122). PC-3 cells were incubated at 37° C., 5% CO2 for 24 h and then starved for 3 h in serum-free medium. Test compounds were serially diluted to produce an 8-point dose curve in fresh serum-free medium to a final concentration of 0.3% DMSO (vehicle) and added to the cells and incubated for 1 h. Cells were then stimulated with 100 ng/mL recombinant human HGF (R&D Systems #294-HG-250) for 10 min, washed with cold PBS, and immediately lysed with 130 μL of cold IX lysis buffer [20 mM Tris, 137 mM sodium chloride, 2 mM EDTA, 10% glycerol, 1% NP-40 alternative, 1 mM activated sodium orthovanadate, 1 mM PefaBloc SC (Sigma-Aldrich #11429868001), protease/phosphatase inhibitor tablet (Thermo Fisher #A32959)]. Lysates were clarified by centrifugation and 100 μL/well added into the PathScan phospho-Met (panTyr) Sandwich ELISA (Cell Signaling Technology #7333). Assay was performed according to manufacturer's instructions. Positive control wells (100% activity) contained HGF-stimulated, DMSO-treated cell lysates. Negative control wells (0% activity) contained HGF-stimulated, reference inhibitor-treated cell lysates. IC50 values were calculated by nonlinear regression analysis using a 4-parameter logistic curve fit in ActivityBase XE (IDBS).

[7] = biological target: T2, KDR (Homo sapiens, UniProt P35968); experiment: KDR autophosphorylation ELISA in HUVEC cells; format: cell-based; settings: VEGF165-stimulated, phospho-KDR ELISA, 1 h compound incubation
T2 construct: host or cells: HUVEC (human umbilical vein endothelial cells)
T2 sequence (P35968 20-1356): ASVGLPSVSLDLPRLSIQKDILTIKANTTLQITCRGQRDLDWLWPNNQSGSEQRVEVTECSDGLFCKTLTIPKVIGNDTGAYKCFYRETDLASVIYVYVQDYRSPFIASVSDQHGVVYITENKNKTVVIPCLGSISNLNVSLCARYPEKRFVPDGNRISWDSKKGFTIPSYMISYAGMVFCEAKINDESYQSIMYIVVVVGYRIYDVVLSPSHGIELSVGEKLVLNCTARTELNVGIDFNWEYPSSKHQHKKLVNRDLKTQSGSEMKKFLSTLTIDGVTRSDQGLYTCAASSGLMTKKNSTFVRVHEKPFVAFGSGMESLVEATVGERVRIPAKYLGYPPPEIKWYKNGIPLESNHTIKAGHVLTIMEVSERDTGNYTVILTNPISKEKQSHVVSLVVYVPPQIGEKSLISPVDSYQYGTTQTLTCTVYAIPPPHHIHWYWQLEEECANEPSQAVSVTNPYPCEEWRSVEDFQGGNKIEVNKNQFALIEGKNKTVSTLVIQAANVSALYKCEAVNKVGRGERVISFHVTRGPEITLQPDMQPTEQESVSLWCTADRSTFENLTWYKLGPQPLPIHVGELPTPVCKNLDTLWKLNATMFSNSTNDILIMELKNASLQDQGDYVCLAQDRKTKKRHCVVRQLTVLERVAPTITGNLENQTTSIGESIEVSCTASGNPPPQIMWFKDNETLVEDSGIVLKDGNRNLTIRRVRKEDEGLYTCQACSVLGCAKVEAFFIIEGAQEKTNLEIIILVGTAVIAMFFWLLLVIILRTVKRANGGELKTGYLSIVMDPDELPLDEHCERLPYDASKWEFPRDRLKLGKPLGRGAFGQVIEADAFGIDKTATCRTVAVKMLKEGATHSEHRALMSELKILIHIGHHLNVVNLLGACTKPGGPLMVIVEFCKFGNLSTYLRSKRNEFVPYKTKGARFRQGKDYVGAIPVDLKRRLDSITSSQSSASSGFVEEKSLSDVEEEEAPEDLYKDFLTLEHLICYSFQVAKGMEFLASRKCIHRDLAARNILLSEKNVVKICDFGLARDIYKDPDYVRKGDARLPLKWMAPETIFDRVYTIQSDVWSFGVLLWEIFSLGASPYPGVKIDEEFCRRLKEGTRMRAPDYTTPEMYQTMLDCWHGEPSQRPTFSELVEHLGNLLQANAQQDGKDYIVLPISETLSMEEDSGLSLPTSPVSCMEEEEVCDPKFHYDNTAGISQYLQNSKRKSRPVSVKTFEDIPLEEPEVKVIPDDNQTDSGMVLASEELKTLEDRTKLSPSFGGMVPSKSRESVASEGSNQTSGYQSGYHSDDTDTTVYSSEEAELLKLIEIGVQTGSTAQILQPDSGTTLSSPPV
Procedure: Example C: KDR Autophosphorylation ELISA in HUVEC Cells
umbilical vein endothelial cells or HUVEC (Lonza #C2519A) were seeded at 2×10^4 cells/well onto 96-well plates (Corning #3904), in EGM-2 growth medium (Lonza #CC-3162) containing 1% Penicillin Streptomycin (Thermo Fisher #15140-122). HUVEC cells were incubated at 37° C., 5% CO2 for 24 h and then starved for 24 h in serum-free EBM-2 basal medium (Lonza #CC-3156) containing 1% Penicillin Streptomycin. Test compounds were serially diluted to produce an 8-point dose curve in fresh serum-free medium to a final concentration of 0.3% DMSO (vehicle) and added to the cells and incubated for 1 h. Cells were then stimulated with 100 ng/mL recombinant human VEGF165 (R&D Systems #293-VE-500) for 5 min, washed with cold PBS, and immediately lysed with 130 μL of cold IX lysis buffer [20 mM Tris, 137 mM sodium chloride, 2 mM EDTA, 10% glycerol, 1% NP-40 alternative, 1 mM activated sodium orthovanadate, 1 mM PefaBloc SC (Sigma-Aldrich #11429868001), protease/phosphatase inhibitor tablet (Thermo Fisher #A32959)]. Lysates were collected and 100 μL/well added into the human phospho-KDR DuoSet IC ELISA (R&D Systems #DYC 1766-2). Assay was performed according to manufacturer's instructions and sample phospho-KDR concentrations were extrapolated using human phospho-KDR control (R&D Systems #841421) as a standard. Positive control wells (100% activity) contained VEGF165-stimulated, DMSO-treated cell lysates. Negative control wells (0% activity) contained non-stimulated cell lysates. IC50 values were calculated by nonlinear regression analysis using a 4-parameter logistic curve fit in ActivityBase XE (IDBS).

[8] = Microsomal assay, human liver microsome stability; settings: liver microsomes, pH 7.4
Procedure: as §1, §2, §3, §4

[9] = biological target: T3, AXL (Homo sapiens, UniProt P30530); experiment: AXL autophosphorylation ELISA in A-172 cells; format: cell-based; settings: A-172 glioblastoma cells, Gas6-stimulated, phospho-AXL ELISA, 1 h compound incubation
T3 construct: host or cells: A-172 glioblastoma cells
T3 sequence (P30530 26-894): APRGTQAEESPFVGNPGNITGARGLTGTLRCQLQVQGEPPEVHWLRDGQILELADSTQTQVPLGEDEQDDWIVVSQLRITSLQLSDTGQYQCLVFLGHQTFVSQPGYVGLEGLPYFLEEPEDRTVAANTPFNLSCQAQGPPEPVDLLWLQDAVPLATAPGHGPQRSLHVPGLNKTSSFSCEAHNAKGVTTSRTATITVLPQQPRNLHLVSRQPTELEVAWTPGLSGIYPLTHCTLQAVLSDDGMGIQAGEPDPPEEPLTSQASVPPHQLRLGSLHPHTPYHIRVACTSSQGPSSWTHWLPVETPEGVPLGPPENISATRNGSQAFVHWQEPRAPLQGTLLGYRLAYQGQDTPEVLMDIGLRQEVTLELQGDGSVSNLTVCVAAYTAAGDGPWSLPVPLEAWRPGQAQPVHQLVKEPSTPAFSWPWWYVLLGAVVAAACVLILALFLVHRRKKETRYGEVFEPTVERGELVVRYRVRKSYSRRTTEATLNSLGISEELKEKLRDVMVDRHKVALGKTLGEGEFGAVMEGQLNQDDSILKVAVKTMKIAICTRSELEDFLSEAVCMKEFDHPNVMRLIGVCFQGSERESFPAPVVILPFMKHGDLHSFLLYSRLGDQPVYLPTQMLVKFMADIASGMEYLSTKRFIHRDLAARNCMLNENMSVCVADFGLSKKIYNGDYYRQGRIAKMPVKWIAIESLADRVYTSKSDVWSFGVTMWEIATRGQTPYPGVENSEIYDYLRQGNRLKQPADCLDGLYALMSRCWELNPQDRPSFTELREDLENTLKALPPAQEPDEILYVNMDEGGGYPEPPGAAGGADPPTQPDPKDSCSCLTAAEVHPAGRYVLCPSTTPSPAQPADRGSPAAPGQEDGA
Procedure: Example A: AXL Autophosphorylation ELISA in A-172 Cells
A-172 glioblastoma cells (ATCC #CRL-1620) were seeded at 2.5×10^5 cells/well onto 24-well plates (Greiner #662165), in DMEM (Thermo Fisher #11995-040) containing 10% FBS (Thermo Fisher #26140-079), 1% MEM NEAA (Thermo Fisher #11140-050), 1% GlutaMax (Thermo Fisher #35050-061), and 1% Penicillin Streptomycin (Thermo Fisher #15140-122). A-172 cells were incubated at 37° C., 5% CO2 for 24 h and then starved for 24 h in serum-free medium. Test compounds were serially diluted to produce an 8-point dose curve in fresh serum-free medium to a final concentration of 0.3% DMSO (vehicle) and added to the cells and incubated for 1 h. Cells were then stimulated with 1 μg/mL recombinant human Gas6 (R&D Systems #885-GSB-500) for 15 min, washed with cold PBS, and immediately lysed with 150 μL of cold IX lysis buffer [20 mM Tris, 137 mM sodium chloride, 2 mM EDTA, 10% glycerol, 1% NP-40 alternative, 1 mM activated sodium orthovanadate, 1 mM PefaBloc SC (Sigma-Aldrich #11429868001), protease/phosphatase inhibitor tablet (Thermo Fisher #A32959)]. Lysates were collected and 100 μL/well added into the human phospho-AXL DuoSet IC ELISA (R&D Systems #DYC2228-2). Assay was performed according to manufacturer's instructions and sample phospho-AXL concentrations were extrapolated using human phospho-AXL control (R&D Systems #841645) as a standard. Positive control wells (100% activity) contained Gas6-stimulated, DMSO-treated cell lysates. Negative control wells (0% activity) contained Gas6-stimulated, reference inhibitor-treated cell lysates. IC50 values were calculated by nonlinear regression analysis using a 4-parameter logistic curve fit in ActivityBase XE (IDBS).

Compound | Human Liver Microsome Stability CLint (μL/min/million cells) [1] | Human Liver Microsome Stability t½ [1] | Mouse Liver Microsome Stability CLint (μL/min/million cells) [2] | Mouse Liver Microsome Stability t½ [2] | Rat Liver Microsome Stability CLint (μL/min/million cells) [3] | Rat Liver Microsome Stability t½ [3] | half-life at 1 μM [4] | half-life at 1 μM [5] | IC50 [6] | IC50 [7] | half-life at 1 μM [8] | IC50 [9]
1-N-[4-(6,7-Dimethoxyquinolin-4-yl)oxyphenyl]-1-N′-(4-fluorophenyl)-1-N′-(methoxymethyl)cyclopropane-1,1-dicarboxamide [Compound 49] | 1052 | 1.3 min | 928 | 1.49 min | 1028 | 1.35 min |  |  |  |  |  | 
COc1cc2c(Oc3ccc(NC(=O)C4(C(=O)N(C)c5ccc(F)cc5)CC4)cc3F)ccnc2cc1OCCCN1CCOCC1 [Compound 11, N-(3-Fluoro-4-((6-methoxy-7-(3-morpholinopropoxy)quinolin-4-yl)oxy)phenyl)-N-(4-fluorophenyl)-N-methylcyclopropane-1,1-dicarboxamide] |  |  |  |  |  |  | 1.6 min | 7.3 min | > 0.3 µM | > 0.3 µM | 1.6 min | 
COc1cc2nccc(Oc3ccc(NC(=O)C4(C(=O)N(C)c5ccc(F)cc5)CC4)cc3F)c2nc1OC [Compound 44, 1-N-[4-[(6,7-Dimethoxy-1,5-naphthyridin-4-yl)oxy]-3-fluorophenyl]-1-N′-(4-fluorophenyl)-1-N′-methylcyclopropane-1,1-dicarboxamide] |  |  |  |  |  |  |  |  | > 0.3 µM | > 0.3 µM |  | > 0.3 µM
